# According to PMC10099666, “Structure Elucidation, Total Synthesis, Antibacterial In Vivo Efficacy and Biosynthesis Proposal of Myxobacterial Corramycin” (Angewandte Chemie (International Ed. in English), 2022):
# *1 amine or outer side, *2 acyl side, *3 side chain or, on linkers, in order; H or OH if unused. Where a SMILES comes first, the peptide text is derived from it. [ ]: non-standard residue; d: D form. The star is where a group is joined. Ava(2S,3R-(OH)2,4S-OMe) = CO[C@@H](CN[*:1])[C@H](O)[C@H](O)C(=O)[*:2]; dHis(βS-OH,π-Me) = Cn1cncc1[C@@H](O)[C@@H](N)C(=O)O; Butanoyl(2R-OH,3S-OH) = C[C@H](O)[C@@H](O)C(=O)*; Val(3-OH) = CC(C)(O)[C@H](N)C(=O)O; NMeF = CN[C@@H](Cc1ccccc1)C(=O)O
# Legend:
# [1] = system: Klebsiella pneumoniae 1705949; format: cell-based; settings: strain 1705949; CAMHB, CLSI/EUCAST broth microdilution, 5x10^5 CFU mL-1, 20-22 h, duplicates
# Protocol: (§1) 5. Determination of the minimal inhibitory concentration (MIC) in vitro The MIC of Corramycin was evaluated following the Clinical & Laboratory Standard Institute (CLSI; https://clsi.org) and EUCAST (https://eucast.org) guidelines. First, inoculi of the bacterial test strains were prepared by culturing isolated colonies in cation-adjusted Müller Hinton broth (CAMHB; 2 g L-1 beef infusion solids, 1.5 g L-1 starch, 17.5 g L-1 casein hydrolysates, final pH 7.4) at 37 °C and 180 rpm for 18 h. Next, Corramycin, which was dissolved in DMSO, was transferred into the first row of a 96-well plate to reach an end concentration of 64 µg mL-1 (in 100 µL total volume). A 1:1 serial dilution in cation-adjusted Mueller Hinton broth (CAMHB) of the test compound was done from the top row to the bottom row of the 96-well plate to reach an end concentration of 0.125 µg mL-1 in the bottom row. Afterwards, the respective test strains were transferred into the wells, reaching a total volume of 100 µL and 5x10^5 colony-forming units (CFU) mL-1. After a 20 to 22 h of incubation, the optical density was evaluated on a microplate reader and the MIC endpoint was determined as the lowest concentration of antibiotic at which there was no visible growth observed. Each MIC experiment was performed in duplicates. Table S 4 depicts the MIC values of Corramycin against all bacterial strains tested in this study.
# (§2) Table S 4. MIC values of Corramycin against all bacterial strains tested in this study. […]
# [2] = system: Enterococcus faecium DSM17050; format: cell-based; settings: strain DSM17050; CAMHB, CLSI/EUCAST broth microdilution, 5x10^5 CFU mL-1, 20-22 h, duplicates
# Protocol: as §1, §2
structure (smiles),measurement,setting,value
"CO[C@@H](CNC(=O)[C@H](NC(=O)[C@H](O)[C@H](C)O)[C@H](O)c1cncn1C)[C@H](O)[C@H](O)C(=O)N(C)[C@@H](Cc1ccccc1)C(=O)NCC(=O)N[C@H](C(=O)N[C@@H](CO)C(=O)N[C@H](C(=O)N[C@@H](CC(C)C)C(=O)N[C@@H](CO)C(=O)O)C(C)(C)O)C(C)(C)O [Corramycin] ({Butanoyl(2R-OH,3S-OH)}-[dHis(βS-OH,π-Me)][Ava(2S,3R-(OH)2,4S-OMe)][NMeF]G[Val(3-OH)]S[Val(3-OH)]LS-OH)",MIC,[1],64 µg/mL
same,MIC,[2],64 µg/mL
